According to patent US9096832B2, “Differentiation of human embryonic stem cells” (LifeScan, Inc., priority 2007, dated 2015):

Experiments:
[1] = tested on: H9P46-P48 embryonic stem cells; assay: Definitive endoderm on […]: effect of GSK-3B inhibitor IX (FACS CXCR4, PCR); assay type: cell-based, human; details: 20 ng/ml Wnt-3a or 100-1000 nM GSK-3B inhibitor, day 5
Method: In order to confirm that the effect of Wnt-3a was through the Wnt pathway, a GSK-3 inhibitor was used to activate the downstream targets of Wnt, such as beta catenin. […] FIG. 29, panel a depicts the expression of CXCR4 by FACS at day 5 in the absence of Wnt-3a or GSK-3B inhibitor, b) +20 ng/ml Wnt-3a, c) +1000 nM GSK-3B inhibitor IX, d) +500 nM GSK-3B inhibitor IX, e) +100 nM GSK-3B inhibitor IX, f) +10 nM GSK-3B inhibitor IX, g) +100 nM GSK-3B inhibitor IX for days 1-2, and h) +10 nM GSK-3B inhibitor IX for days 1-2.

H9 cells = assay: Immunofluorescence staining of DE markers, activin A +/- Wnt-3a; assay type: cell-based, human
Text: Day 5 DE cultures of H9 cells were stained according to Example 10 for SOX-17, HNF-3B, GATA-4, N-cadherin, and E-cadherin. All nuclei were counter stained with DAPI.

[2] = tested on: human embryonic stem cell line H1; assay: FACS of protein markers after activin A treatment (Table IIC); assay type: cell-based; details: 5-day AA treatment
Text: (§1) The level of expression of definitive endoderm markers was examined by PCR (FIG. 1), FACS (results summarized in Table II), and immunohistochemistry (FIG. 2).
CXCR4 positive cells were also highly positive for C-kit, EPCAM, CD99, and negative for CD9. The expression pattern for these markers was consistent among all three hES cell lines examined (Table IIB for H7 and Table IIC for H1). […] In parallel, almost 100% of the differentiated cells were […] (FIG. 2).
Adhered cells were removed from culture plates by five-minute incubation with TrypLE™ Express solution (Invitrogen, CA). Released cells were resuspended in human embryonic stem cell culture medium and recovered by centrifugation, followed by washing and resuspending the cells in a staining buffer consisting of 2% BSA, 0.05% sodium azide in PBS (Sigma, MO). As appropriate, the cells were Fc-receptor blocked for 15 minutes using a 0.1% γ-globulin (Sigma) solution. […] Controls included appropriate isotype matched antibodies, unstained cells, and cells stained only with secondary conjugated antibody. All incubations with antibodies were performed for 30 mins at 4° C. after which the cells were washed with the staining buffer. Samples that were stained with unconjugated primary antibodies were incubated for an additional 30 mins at 4° C. with secondary conjugated PE or —APC labeled antibodies. See Table I for a list of secondary antibodies used. Washed cells were pelleted and resuspended in the staining buffer, and the cell surface molecules were identified using a FACS Array (BD Biosciences) instrument, collecting at least 10,000 events.

[3] = tested on: human embryonic stem cell line H9; assay: Immunocytochemistry of definitive endoderm markers after activin A treatment; assay type: cell-based; details: activin A for five days
Text: as §1
Levels of expression for HNF-3beta, Sox-17, and GATA4 were low in untreated cells, approximately 10 to 20% of all cells.

[4] = tested on: human embryonic stem cell line H9; assay: Formation of pancreatic endocrine cells with gamma-secretase inhibitor L-685,458 (PCR); assay type: cell-based; details: activin A alone or in combination with retinoic acid and FGFs
Method: After this time interval, the cells were then treated for six days with combinations of retinoic acid and FGF as outlined in Example 2, then the culture medium was removed and replaced with medium comprising DMEM/F12 with 2% FBS, containing the γ-secretase inhibitors L-685,458 at 10 μM for three days.
Final data were expressed relative to a calibrator sample.

[5] = tested on: human embryonic stem cell line H9; assay: Formation of pancreatic endocrine cells expressing Nkx2.2 (PCR); assay type: cell-based
Method: Cells were continuously cultured for another 3 to 5 days in basal medium with retinoic acid at 1 μM, alone or with bFGF. RNA samples were harvested from cells at various time points along this process to help evaluate the directed differentiation of the cells. Furthermore, culture medium and factors were regularly removed and replenished throughout the differentiation protocol.

[6] = tested on: human embryonic stem cell line H9; details: activin A or retinoic acid alone
Method: Cultures were harvested and samples of mRNA were collected for analysis.
Cells seeded on 0.1% Matrigel (BD) coated dishes were fixed with 4% paraformaldheyde for 20 min at room temperature. Fixed cells were blocked for 1 h at room temperature with PBS/0.1%BSA/10% normal chick serum /0.5% Triton X-100 and then incubated overnight with primary antibodies in PBS/0.1%BSA/10% normal chick serum at 4° C. After three washes in PBS/0.1% BSA, fluorescent secondary antibodies at a 1:100 dilution in PBS were incubated with cells for 1 h at room temperature to allow binding. Control samples included reactions where the primary antibody was omitted or where the primary antibody was replaced with corresponding matched negative control immunoglobulins at the same concentration as the primary antibodies. […]
Real-time PCR amplification and quantitative analysis: Unless otherwise stated, all reagents were purchased from Applied Biosystems. […] For each primer/probe set, a Ct value was determined as the cycle number at which the fluorescence intensity reached a specific value in the middle of the exponential region of amplification. Relative gene expression levels were calculated using the comparative Ct method. […] The normalized amount of target was calculated as 2-ΔCt, assuming amplification to be 100% efficiency. […]

## Wnt-3a
[1]
  number of CXCR4 positive cells: significantly increased
H9 cells; 20 ng/ml Wnt-3a, Day 5 DE cultures
  nuclei stained positive for SOX-17, HNF-3beta, and GATA-4: significantly larger number
H9 cells; addition of Wnt-3a
  expression of N-cadherin: enhanced expression
  expression of e-cadherin: significant loss of expression

## Activin A: activin A (a member of the TGFβ superfamily), R&D Systems; 'w/o wnt' in Table VII = 100 ng/ml Activin A without Wnt3a
[2]
  CXCR4+: 92.78%
  CXCR4+/C-kit+: 92.90%
  CXCR4+/CD9+: 7.03%
  CXCR4+/CD99+: 88.78%
  CXCR4+/EPCAM: 87.99%
[3]
  cells positive for Sox17 and HNF-3beta (immunocytochemistry): 30-40%
  differentiated cells still Oct4 positive (immunocytochemistry): ~100%
[4]
  expression of Ngn3 or insulin: did not induce
[5]; 50 ng/ml activin A with 50 ng/ml basic FGF and 1 μM Retinoic Acid
  increase of Nkx2.2 expression compared to samples without activin A: about 35 fold
[5]; activin A for the first three days of culture
  Pdx1 expression: maintained Pdx1 expression at a level similar to samples containing no activin A
[6]
  expression of Pdx1: did not induce
